The test system of assay [1] is rat cortical spreading depression (CSD) model. The experiment in a line: rat cortical spreading depression (CSD) model, KCl-induced. It counts as in vivo. The conditions noted are these: female Wistar rats, 10 mg/kg orally once daily for 6 days. The method, then:
The following Example provides data from a rat cortical spreading depression (CSD) model, which recapitulates symptoms seen in migraine patients with aura. (2R)-1-((1-(4-(4-Methyl-1H-pyrazol-1-yl)pyridin-3-yl)piperidin-4-yl)carbonyl)pyrrolidine-2-carbonitrile was tested in the CSD model for its potential effects on hyperperfusion events and cortical direct current (DC)-potentials. Adult female Wistar rats from Charles River Germany were used for the experiment. Animals were housed at a standard temperature (22±1° C.) and in a light-controlled environment (lights on from 7 am to 8 pm) with ad libitum access to food and water. Rats were orally treated with vehicle (0.5% methylcellulose in water) or (2R)-1-((1-(4-(4-methyl-1H-pyrazol-1-yl)pyridin-3-yl)piperidin-4-yl)carbonyl)pyrrolidine-2-carbonitrile at the dose of 10 mg/kg once daily for 6 days (n=8). One hour after the last dosing, rats were anesthetized with 5% isoflurane (in 70% N2O and 30% O2; flow 300 ml/min), and placed in a stereotactic frame.
During the operation and CSD the concentration of anesthetic was reduced to 1-1.5%. The rectal temperature was maintained at 37.0±1.0° C. with a homeothermic blanket system. The skin was opened by a medial incision and retracted laterally. Three burr holes were drilled under saline cooling over the right hemisphere at the following coordinates (mm from bregma): (1) posterior 4.5, lateral, 2.0 (occipital cortex): KCl application site; (2) posterior 0.5, lateral 2.0 (parietal cortex) (3) anterior 2, lateral 2 (frontal cortex). A laser-Doppler flow probe (Oxyflow, Oxford Optronics, UK) to monitor cerebral blood flow (CBF) was placed in the parietal cortex burr holes on the intact dura. An invasive Ag/AgCl electrode for measuring DC potential shifts was placed in the frontal cortex burr holes on the intact dura. For the DC-potential measurement, a reference electrode was fixed in the neck. […] The number of KCl-induced CSDs was checked over the period of 2 hours and the number of CBF changes was also measured. […]

For assay [2], the system named is mouse model of chronic post-ischemic pain. Description: mouse model of chronic post-ischemic pain (CRPS model), von Frey paw withdraw threshold. The conditions noted are these: 30 mg/kg orally once daily for 7 days. It counts as in vivo. The method, then:
The following Example provides data from a mouse model of chronic post-ischemic pain, which recapitulates symptoms seen in CRPS patients with peripheral tissue injury and subsequent progression of allodynia. (4-Benzyl-4-hydroxypiperidin-1-yl) (2,4′-bipyridin-3-yl)methanone was tested in the CRPS model for its potential effects on pain. Following 3-hour ischemia and 0.5-hour reperfusion given at a hind limb, mice (C57) were orally treated with (4-benzyl-4-hydroxypiperidin-1-yl) (2,4′-bipyridin-3-yl)methanone at the dose of 30 mg/kg once daily for 7 days (n=8). Paw withdraw threshold was evaluated with von Frey filaments as a behavioral index of mechanical allodynia at 0 h for the base line, 6 h, Days 1, 2, 4 and 7. The cumulative score of paw withdraw threshold over the study period was 17.7 in the sham-treated control group without ischemia/reperfusion injury. In the groups given ischemic injury, the cumulative score was 9.0 and 16.2 for the vehicle control and (4-benzyl-4-hydroxypiperidin-1-yl) (2,4′-bipyridin-3-yl)methanone group, respectively.

A further assay has as its target NMDA receptors. To be noted: read-out: EC50 as positive allosteric modulator of NMDA receptors; cited from earlier work.

pEC50: −log10 of the molar value.

Usually pEC50 stands for the negative decadic logarithm of the EC50, by convention in mol/L.

For `Cc1cnn(-c2ccncc2N2CCC(C(=O)N3CCC[C@@H]3C#N)CC2)c1` [(2R)-1-((1-(4-(4-methyl-1H-pyrazol-1-yl)pyridin-3-yl)piperidin-4-yl)carbonyl)pyrrolidine-2-carbonitrile], the “CSD events (effect of treatment)” value in assay [1] is on record as “markedly reduced”. Moreover, the “average number of KCl-induced CSDs” value in assay [1] (counted over 2 hours, vehicle 10.00) is 4.75. In assay [1] (over 2 hours, vehicle 22.75), the “average number of CBF changes” value was 15.75.
On to `O=C(c1cccnc1-c1ccncc1)N1CCC(O)(Cc2ccccc2)CC1` [(4-benzyl-4-hydroxypiperidin-1-yl) (2,4′-bipyridin-3-yl)methanone], for which the “allodynia threshold (effect of treatment)” value in assay [2] (C57 mice with ischemic injury) was “markedly increased”. Besides, the “cumulative score of paw withdraw threshold over the study period” value in assay [2] (C57 mice, 3-hour ischemia and 0.5-hour reperfusion at a hind limb, von Frey filaments, vehicle 9.0, sham 17.7) is 16.2.
Consider `CC(C)[C@@H](O)CC[C@@H](C)[C@H]1CC[C@H]2[C@@H]3CC=C4C[C@@H](O)CC[C@]4(C)[C@H]3CC[C@]12C` [24(S)-hydroxycholesterol], for which the pEC50 on NMDA receptors is 5.92.

The values above are taken from patent publication US20210346366A1, “CH24H INHIBITORS FOR PAIN USE” (Takeda Pharmaceutical Company Limited, priority 2018, published 2021).
